{"source": "ChEMBL document CHEMBL5465560", "about": "“Selectivity Literature for EUbOPEN Chemogenomic Library” (2024)", "key": {"[1]": {"biological_target": "Microtubule-associated serine/threonine-protein kinase 1 (Homo sapiens) (UniProt Q9Y2H9)", "sequence (Q9Y2H9 whole entry, looked up)": "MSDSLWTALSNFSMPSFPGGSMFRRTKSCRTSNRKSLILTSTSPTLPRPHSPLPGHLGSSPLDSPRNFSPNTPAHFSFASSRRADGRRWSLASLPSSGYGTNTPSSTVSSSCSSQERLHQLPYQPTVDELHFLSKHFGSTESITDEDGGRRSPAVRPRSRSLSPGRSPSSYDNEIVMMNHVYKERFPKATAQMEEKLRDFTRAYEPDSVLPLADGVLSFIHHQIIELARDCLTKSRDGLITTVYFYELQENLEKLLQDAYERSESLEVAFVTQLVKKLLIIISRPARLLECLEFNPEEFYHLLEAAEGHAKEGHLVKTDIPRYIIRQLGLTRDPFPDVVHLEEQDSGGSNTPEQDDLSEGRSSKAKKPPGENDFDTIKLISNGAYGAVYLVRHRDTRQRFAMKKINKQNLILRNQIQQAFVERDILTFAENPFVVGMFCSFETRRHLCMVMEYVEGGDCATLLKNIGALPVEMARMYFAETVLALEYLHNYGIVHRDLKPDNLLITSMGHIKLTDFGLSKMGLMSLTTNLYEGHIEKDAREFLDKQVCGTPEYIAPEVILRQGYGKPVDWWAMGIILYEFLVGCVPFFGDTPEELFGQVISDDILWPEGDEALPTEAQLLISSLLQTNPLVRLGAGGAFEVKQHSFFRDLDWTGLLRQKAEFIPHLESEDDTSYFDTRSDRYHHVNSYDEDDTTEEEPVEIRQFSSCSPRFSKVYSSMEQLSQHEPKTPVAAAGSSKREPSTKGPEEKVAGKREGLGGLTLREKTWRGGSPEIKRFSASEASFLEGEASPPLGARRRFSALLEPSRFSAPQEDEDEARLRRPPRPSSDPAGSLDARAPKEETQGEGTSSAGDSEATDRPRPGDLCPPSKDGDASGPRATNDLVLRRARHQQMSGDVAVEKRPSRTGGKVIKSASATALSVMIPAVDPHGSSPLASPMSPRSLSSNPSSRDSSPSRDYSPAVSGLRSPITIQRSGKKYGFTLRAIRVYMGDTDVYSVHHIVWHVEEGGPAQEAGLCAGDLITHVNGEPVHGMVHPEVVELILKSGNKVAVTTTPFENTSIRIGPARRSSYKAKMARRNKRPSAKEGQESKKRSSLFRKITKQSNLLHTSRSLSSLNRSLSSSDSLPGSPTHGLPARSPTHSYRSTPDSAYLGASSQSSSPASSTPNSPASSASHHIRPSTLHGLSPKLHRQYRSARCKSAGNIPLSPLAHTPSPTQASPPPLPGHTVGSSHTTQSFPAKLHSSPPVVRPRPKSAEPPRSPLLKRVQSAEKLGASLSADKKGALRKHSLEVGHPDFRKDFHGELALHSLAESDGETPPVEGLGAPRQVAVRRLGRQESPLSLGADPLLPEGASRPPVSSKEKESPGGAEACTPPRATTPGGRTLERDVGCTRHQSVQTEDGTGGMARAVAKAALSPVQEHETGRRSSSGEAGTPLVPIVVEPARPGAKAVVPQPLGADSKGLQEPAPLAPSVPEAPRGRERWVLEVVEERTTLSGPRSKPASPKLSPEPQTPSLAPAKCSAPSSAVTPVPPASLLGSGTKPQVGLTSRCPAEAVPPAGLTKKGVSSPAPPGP", "experiment": "Selectivity interaction (KinomeScan (DiscoverX)) EUB0000229b MAST1", "details": "at 10 µM"}, "[2]": {"biological_target": "Misshapen-like kinase 1 (Homo sapiens, UniProt Q8N4C8)", "experiment": "Selectivity interaction (KinomeScan (DiscoverX)) EUB0001079a MINK1", "details": "at 1 µM"}, "[3]": {"biological_target": "T1, Mitogen-activated protein kinase kinase kinase kinase 2 (Homo sapiens) (UniProt Q12851)", "T1 sequence (whole entry)": "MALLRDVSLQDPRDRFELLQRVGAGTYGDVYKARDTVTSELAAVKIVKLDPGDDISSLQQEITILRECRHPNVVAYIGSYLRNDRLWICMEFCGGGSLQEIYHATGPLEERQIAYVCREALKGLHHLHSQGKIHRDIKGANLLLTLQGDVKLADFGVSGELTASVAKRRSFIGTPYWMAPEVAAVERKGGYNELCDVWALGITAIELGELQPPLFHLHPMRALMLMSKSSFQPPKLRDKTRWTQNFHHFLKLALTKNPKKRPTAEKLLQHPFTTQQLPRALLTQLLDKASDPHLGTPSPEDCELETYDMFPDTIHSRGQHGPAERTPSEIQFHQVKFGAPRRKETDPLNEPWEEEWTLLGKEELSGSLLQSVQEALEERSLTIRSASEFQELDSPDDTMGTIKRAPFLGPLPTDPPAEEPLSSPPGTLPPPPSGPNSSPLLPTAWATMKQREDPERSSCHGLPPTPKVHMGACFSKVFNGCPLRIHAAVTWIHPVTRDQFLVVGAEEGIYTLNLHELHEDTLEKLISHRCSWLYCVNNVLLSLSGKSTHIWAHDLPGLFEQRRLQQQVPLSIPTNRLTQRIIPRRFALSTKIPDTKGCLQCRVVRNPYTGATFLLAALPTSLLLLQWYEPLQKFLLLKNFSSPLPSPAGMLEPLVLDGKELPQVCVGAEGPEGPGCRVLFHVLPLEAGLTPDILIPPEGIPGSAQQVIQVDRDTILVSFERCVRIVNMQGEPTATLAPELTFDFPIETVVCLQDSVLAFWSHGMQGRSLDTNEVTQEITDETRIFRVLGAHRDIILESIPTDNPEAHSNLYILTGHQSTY", "experiment": "Selectivity interaction (ActivX KiNativ screen (kinase selectivity in THP-1 cell lysates)) EUB0000639a MAP4K2", "assay_type": "subcellular", "details": "lysate"}, "[4]": {"biological_target": "T2, SNF-related serine/threonine-protein kinase (Homo sapiens) (UniProt Q9NRH2)", "T2 sequence (whole entry)": "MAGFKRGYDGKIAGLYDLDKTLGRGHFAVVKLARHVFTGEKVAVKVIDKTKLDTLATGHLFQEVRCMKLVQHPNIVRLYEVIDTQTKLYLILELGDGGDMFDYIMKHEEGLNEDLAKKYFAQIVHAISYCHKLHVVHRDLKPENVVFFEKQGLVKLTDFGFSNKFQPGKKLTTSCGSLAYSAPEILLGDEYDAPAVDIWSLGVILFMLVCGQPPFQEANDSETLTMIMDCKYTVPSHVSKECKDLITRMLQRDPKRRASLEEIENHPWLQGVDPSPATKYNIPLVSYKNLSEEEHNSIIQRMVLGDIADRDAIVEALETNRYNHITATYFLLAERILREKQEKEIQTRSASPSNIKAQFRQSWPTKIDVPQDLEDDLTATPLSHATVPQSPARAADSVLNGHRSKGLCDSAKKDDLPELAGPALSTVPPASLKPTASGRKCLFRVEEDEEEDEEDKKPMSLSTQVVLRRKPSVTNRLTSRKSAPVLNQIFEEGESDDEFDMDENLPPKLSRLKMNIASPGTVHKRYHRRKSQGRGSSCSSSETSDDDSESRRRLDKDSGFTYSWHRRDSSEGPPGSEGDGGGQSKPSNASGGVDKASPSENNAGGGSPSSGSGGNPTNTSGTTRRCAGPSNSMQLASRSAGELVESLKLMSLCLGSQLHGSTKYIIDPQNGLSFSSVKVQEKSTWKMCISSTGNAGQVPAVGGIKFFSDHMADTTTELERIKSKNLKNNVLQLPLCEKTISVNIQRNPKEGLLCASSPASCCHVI", "experiment": "Selectivity interaction (ActivX KiNativ screen (kinase selectivity in THP-1 cell lysates)) EUB0000639a SNRK", "assay_type": "subcellular", "details": "lysate"}, "[5]": {"tested_on": "Leucine-rich repeat serine/threonine-protein kinase 2 (Homo sapiens), Q5S007 [R1441C]", "sequence (Q5S007 whole entry R1441C)": "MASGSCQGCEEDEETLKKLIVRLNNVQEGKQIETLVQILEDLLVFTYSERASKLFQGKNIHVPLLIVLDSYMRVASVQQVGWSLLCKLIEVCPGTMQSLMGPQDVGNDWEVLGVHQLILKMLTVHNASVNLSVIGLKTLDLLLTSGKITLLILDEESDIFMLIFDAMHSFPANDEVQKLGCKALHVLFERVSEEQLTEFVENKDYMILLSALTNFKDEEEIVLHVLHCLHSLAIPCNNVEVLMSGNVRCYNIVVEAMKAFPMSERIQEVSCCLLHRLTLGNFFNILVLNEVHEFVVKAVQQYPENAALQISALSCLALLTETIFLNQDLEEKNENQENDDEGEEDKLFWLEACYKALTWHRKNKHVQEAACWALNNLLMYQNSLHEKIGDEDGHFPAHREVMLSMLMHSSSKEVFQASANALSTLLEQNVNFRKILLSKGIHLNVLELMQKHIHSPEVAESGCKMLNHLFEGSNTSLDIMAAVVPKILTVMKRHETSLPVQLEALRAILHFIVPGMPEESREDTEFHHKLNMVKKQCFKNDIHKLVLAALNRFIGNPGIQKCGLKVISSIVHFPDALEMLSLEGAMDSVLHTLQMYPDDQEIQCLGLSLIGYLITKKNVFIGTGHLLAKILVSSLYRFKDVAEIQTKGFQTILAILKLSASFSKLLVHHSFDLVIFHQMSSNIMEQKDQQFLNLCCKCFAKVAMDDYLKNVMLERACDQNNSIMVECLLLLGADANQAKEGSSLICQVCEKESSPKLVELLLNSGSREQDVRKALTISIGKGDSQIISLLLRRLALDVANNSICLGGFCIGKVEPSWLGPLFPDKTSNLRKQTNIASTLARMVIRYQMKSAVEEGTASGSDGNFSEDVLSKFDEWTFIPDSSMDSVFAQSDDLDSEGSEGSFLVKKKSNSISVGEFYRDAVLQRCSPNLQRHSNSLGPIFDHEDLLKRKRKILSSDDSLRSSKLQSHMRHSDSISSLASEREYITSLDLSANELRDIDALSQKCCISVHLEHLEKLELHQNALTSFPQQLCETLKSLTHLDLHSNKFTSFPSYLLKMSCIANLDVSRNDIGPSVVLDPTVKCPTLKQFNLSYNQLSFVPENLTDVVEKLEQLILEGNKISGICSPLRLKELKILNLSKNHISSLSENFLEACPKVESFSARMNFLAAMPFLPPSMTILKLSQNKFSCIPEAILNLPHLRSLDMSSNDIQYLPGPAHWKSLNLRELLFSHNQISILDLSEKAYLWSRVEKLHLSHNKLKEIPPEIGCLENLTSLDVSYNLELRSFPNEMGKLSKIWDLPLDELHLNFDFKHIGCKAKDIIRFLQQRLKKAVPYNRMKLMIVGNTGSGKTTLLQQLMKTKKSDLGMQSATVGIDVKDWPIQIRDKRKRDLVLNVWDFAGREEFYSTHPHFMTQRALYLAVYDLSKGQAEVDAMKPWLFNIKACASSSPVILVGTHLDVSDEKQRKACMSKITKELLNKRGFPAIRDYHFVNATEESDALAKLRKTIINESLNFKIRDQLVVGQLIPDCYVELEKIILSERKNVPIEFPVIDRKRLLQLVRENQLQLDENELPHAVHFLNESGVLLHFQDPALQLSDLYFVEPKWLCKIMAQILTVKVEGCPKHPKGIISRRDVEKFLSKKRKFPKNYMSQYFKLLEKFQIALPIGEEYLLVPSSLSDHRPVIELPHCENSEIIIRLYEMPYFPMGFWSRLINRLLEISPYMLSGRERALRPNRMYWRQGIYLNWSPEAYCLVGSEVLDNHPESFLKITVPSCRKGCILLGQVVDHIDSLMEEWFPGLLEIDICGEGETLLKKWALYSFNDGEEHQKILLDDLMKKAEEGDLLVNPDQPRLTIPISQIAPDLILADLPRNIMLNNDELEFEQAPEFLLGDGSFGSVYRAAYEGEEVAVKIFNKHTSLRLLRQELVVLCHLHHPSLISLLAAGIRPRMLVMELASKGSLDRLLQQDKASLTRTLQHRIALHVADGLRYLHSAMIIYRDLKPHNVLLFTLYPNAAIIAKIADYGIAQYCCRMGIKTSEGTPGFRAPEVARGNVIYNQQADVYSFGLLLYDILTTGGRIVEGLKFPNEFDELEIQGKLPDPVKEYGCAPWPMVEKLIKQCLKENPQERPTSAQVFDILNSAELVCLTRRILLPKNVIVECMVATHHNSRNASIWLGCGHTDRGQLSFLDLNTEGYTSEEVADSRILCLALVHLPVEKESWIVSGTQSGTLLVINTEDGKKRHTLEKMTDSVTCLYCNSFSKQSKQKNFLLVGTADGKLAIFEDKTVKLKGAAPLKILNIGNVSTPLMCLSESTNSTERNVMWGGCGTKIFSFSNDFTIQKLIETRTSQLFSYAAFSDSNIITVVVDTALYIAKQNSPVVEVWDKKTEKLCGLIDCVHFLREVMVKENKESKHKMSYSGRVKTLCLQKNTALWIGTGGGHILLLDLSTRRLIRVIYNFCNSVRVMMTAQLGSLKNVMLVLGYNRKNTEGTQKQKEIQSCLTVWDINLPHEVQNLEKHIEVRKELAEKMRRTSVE", "experiment": "(§1) Selectivity interaction (ProQinase) EUB0000171b LRRK2"}, "[6]": {"tested_on": "Leucine-rich repeat serine/threonine-protein kinase 2 (Homo sapiens), Q5S007 [G2019S]", "sequence (Q5S007 whole entry G2019S)": "as the sequence (Q5S007 whole entry R1441C) above, with C1441R, G2019S counted along it", "experiment": "as §1"}, "[7]": {"biological_target": "Leucine-rich repeat serine/threonine-protein kinase 2 (Homo sapiens, UniProt Q5S007)", "sequence (Q5S007 whole entry)": "as the sequence (Q5S007 whole entry R1441C) above, with C1441R counted along it", "experiment": "as §1"}, "[8]": {"tested_on": "Leucine-rich repeat serine/threonine-protein kinase 2 (Homo sapiens), Q5S007 [I2020T]", "sequence (Q5S007 whole entry I2020T)": "as the sequence (Q5S007 whole entry R1441C) above, with C1441R, I2020T counted along it", "experiment": "as §1"}}, "data": [{"smiles": "COc1cc(N(C)c2ccnc3ccc(C(F)(F)F)cc23)cc(OC)c1OC", "values": [{"measurement": "% binding", "setting": "[1]", "value": 85, "unit": "%"}]}, {"smiles": "Nc1cnc(N2CCc3cc(S(=O)(=O)Nc4c(F)cc(Cl)cc4F)cc(N4CCCC4=O)c32)nc1", "note": "[TP-020n]", "values": [{"measurement": "% of control", "setting": "[2]", "value": 100, "unit": "%"}]}, {"smiles": "CC[C@@H]1[C@H](F)C(=O)N[C@@H]1COc1nccc2cc(C(N)=O)c(OC)cc12", "note": "[ZIMLOVISERTIB]", "values": [{"measurement": "% of inhibition", "setting": "[3]; at 0.01 µM", "value": -10, "unit": "%"}, {"measurement": "% of inhibition", "setting": "[3]; at 0.04 µM", "value": -5.8, "unit": "%"}, {"measurement": "% of inhibition", "setting": "[3]; at 0.2 µM", "value": -8.2, "unit": "%"}, {"measurement": "% of inhibition", "setting": "[3]; at 1 µM", "value": -2.9, "unit": "%"}, {"measurement": "% of inhibition", "setting": "[3]; at 5 µM", "value": -12.1, "unit": "%"}, {"measurement": "% of inhibition", "setting": "[4]; at 0.01 µM", "value": -4.2, "unit": "%"}, {"measurement": "% of inhibition", "setting": "[4]; at 0.04 µM", "value": 1.9, "unit": "%"}, {"measurement": "% of inhibition", "setting": "[4]; at 0.2 µM", "value": 21.5, "unit": "%"}, {"measurement": "% of inhibition", "setting": "[4]; at 1 µM", "value": 3.6, "unit": "%"}, {"measurement": "% of inhibition", "setting": "[4]; at 5 µM", "value": 23.9, "unit": "%"}]}, {"smiles": "C=CC(=O)Nc1cccc(C(=O)Nc2ccc(Nc3cc(-c4[nH]c(SC)nc4C)ccn3)cc2)c1", "values": [{"measurement": "% of control", "setting": "[5]; at 1 µM", "value": 80, "unit": "%"}, {"measurement": "% of control", "setting": "[5]; at 5 µM", "value": 51, "unit": "%"}, {"measurement": "% of control", "setting": "[6]; at 1 µM", "value": 72, "unit": "%"}, {"measurement": "% of control", "setting": "[6]; at 5 µM", "value": 52, "unit": "%"}, {"measurement": "% of control", "setting": "[7]; at 1 µM", "value": 77, "unit": "%"}, {"measurement": "% of control", "setting": "[7]; at 5 µM", "value": 47, "unit": "%"}, {"measurement": "% of control", "setting": "[8]; at 1 µM", "value": 71, "unit": "%"}, {"measurement": "% of control", "setting": "[8]; at 5 µM", "value": 49, "unit": "%"}]}]}
